Patent US7517658B2, “Methods for preparing compositions using a SNORF33 receptor” (H. Lundbeck A/S, priority 1999, dated 2009)

Legend:
[1] = molecular target: rSNORF33 (Rattus norvegicus, UniProt Q923Y9); experiment: Cl- currents in Xenopus oocytes expressing rSNORF33 and CFTR (voltage clamp); assay type: cell-based; details: for EC50: oocytes expressing rSNORF33 and CFTR, -80 mV, mean ± S.E.M., read-out: Calculated EC50, Cl- current
Method: Female Xenopus laevis (Xenopus-1, Ann Arbor, Mich.) were anesthetized in 0.2% tricain (3-aminobenzoic acid ethyl ester, Sigma Chemical Corp.) and a portion of ovary was removed using aseptic technique (Quick and Lester, 1994). Oocytes were defolliculated, using 3 mg/ml collagenase (Worthington Biochemical Corp., Freehold, N.J.) in a solution containing 82.5 mM NaCl, 2 mM KCl, 1 mM MgCl2 and 5 mM HEPES, pH 7.5, and injected (Nanoject, Drummond Scientific, Broomall, Pa.) 24 h later with 50-70 nl of individual mRNAs or mRNA mixtures (see below).
Elevation of intracellular cAMP is monitored in oocytes by expression of the cystic fibrosis transmembrane conductance regulator (CFTR) whose Cl^−-selective pore opens in response to phosphorylation by protein kinase A (Riordan, 1993). To prepare RNA transcripts for expression in oocytes, a template was created by PCR using 5′ and 3′ primers derived from the published sequence of the CFTR gene (Riordan, 1993). The 5′ primer included the sequence coding for T7 polymerase so that transcripts could be generated directly from the PCR products without cloning. Oocytes were injected with 10 ng of CFTR mRNA in addition to 10-15 ng mRNA for SNORF33. Electrophysiological recordings were made after a 2-3 day incubation at 18° C.
Dual electrode voltage clamp (“GeneClamp”, Axon Instruments Inc., Foster City, Calif.) was performed using 3 M KCl-filled glass microelectrodes having resistances of 1-3 Mohms. Unless otherwise specified, oocytes were voltage clamped at a holding potential of −80 mV. During recordings, oocytes were bathed in continuously flowing (1-3 ml/min) medium containing 96 mM NaCl, 2 mM KCl, 1.8 mM CaCl2, 1 mM MgCl2, and 5 mM HEPES, pH 7.5 (ND96). […] Experiments were carried out at room temperature. All values are expressed as mean±standard error of the mean.

[2] = molecular target: T1, hSNORF33 (Homo sapiens, UniProt Q96RJ0); experiment: Intracellular cAMP release in human SNORF33-transfected COS-7 cells; assay type: cell-based; parameters: expressed in transfected cells; host or cells: COS-7 (transient); details: transiently transfected COS-7 cells; read-out: Mean EC50 ± S.D.M., stimulation of human SNORF33 measured by intracellular cAMP release
T1 sequence (Q96RJ0 1-339): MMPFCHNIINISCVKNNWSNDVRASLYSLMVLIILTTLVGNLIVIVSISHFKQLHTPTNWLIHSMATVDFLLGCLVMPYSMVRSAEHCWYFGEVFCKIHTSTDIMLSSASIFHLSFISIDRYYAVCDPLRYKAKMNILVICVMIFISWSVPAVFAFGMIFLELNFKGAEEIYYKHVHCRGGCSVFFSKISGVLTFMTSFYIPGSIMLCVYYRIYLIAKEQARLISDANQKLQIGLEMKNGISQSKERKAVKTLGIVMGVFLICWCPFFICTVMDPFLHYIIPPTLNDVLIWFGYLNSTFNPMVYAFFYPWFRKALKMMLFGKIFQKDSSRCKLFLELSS
Method: The receptor-mediated stimulation or inhibition of cyclic AMP (cAMP) formation may be assayed in cells expressing the mammalian receptors. Cells are plated in 96-well plates or other vessels and preincubated in a buffer such as HEPES buffered saline (NaCl (150 mM), CaCl2 (1 mM), KCl (5 mM), glucose (10 mM)) supplemented with a phosphodiesterase inhibitor such as 5 mM theophylline, with or without protease inhibitor cocktail (For example, a typical inhibitor cocktail contains 2 μg/ml aprotinin, […] leupeptin, and 10 μg/ml phosphoramidon.) for 20 min at 37° C., in 5% CO2. Test compounds are added with or without […] forskolin and incubated for an additional 10 min at 37° C. The medium is then aspirated and the reaction stopped by the addition of 100 mM HCl or other methods. The plates are stored at 4° C. for 15 min, and the cAMP content in the stopping solution is measured by radioimmunoassay. Radioactivity may be quantified using a gamma counter equipped with data reduction software. Specific modifications may be performed to optimize the assay for the receptor or to alter the detection method of cAMP.
COS-7 cells were transiently transfected with rSNORF33 gene using the calcium phosphate method and plated in 96-well plates. 48 hours after transfection, cells were washed twice with Dulbecco's phosphate buffered saline (PBS) supplemented with 10 mM HEPES, 10 mM glucose, 5 mM theophylline and 10 μM pargyline and were incubated in the same buffer for 20 min at 37° C., in […] 5% CO2. Test compounds were added and cells were incubated for an additional 10 min at 37° C. The medium was then aspirated and the reaction stopped by the addition of 100 mM HCl. The plates were stored at −20° C. for 2-5 days. For cAMP measurement, plates were thawed and the cAMP content in each well was measured by radioimmunoassay cAMP Scintillation Proximity Assay (Amersham Pharmacia Biotech). Radioactivity was quantified using microbeta Trilux counter (Wallac).

[3] = molecular target: T1, hSNORF33; experiment: [3H]-TYR binding (saturation and displacement) to human SNORF33 COS-7 membranes; parameters: expressed in transfected cells; host or cells: COS-7 (membranes); details: human SNORF33 in transfected COS-7 membranes; read-out: Mean Ki ± S.D.M., displacement of [3H]-tyramine
Method: [^3H]-TYR and [^3H]-T binding assays were performed essentially as described by Mallard et al. (1992), with minor modifications. Radioligand binding assays were performed by diluting membranes prepared from cells expressing the receptor (with co-expression of the rat G-protein alpha S subunit for human SNORF33) in 25 mM Gly-Gly buffer (Sigma, pH=7.4 @ 0° C.) containing 5 mM ascorbate and 10 μM pargyline (final protein concentration in assay=100-300 μg/ml). Membranes were then incubated with either [^3H]-TYR (American Radiochemicals, specific activity 60 mCi/μmole) or [^3H]-T (Amersham, specific activity 98 mCi/μmole) in the presence or absence of competing ligands on ice for 30 min in a total volume of 250 μl in 96 well microtiter plates. The bound ligand was separated from free by filtration through GF/B filters presoaked in 0.5% polyethyleneimine (PEI), using Tomtec (Wallac) or Brandel Cell Harvester vacuum filtration device. After addition of Ready Safe (Beckman) scintillation fluid, bound radioactivity was quantitated using a Trilux (Wallac) scintillation counter (approximately 20% counting efficiency of bound counts). Data was fit to non-linear curves using GraphPad Prism.
In this manner, agonist or antagonist compounds that bind to the receptor may be identified as they inhibit the binding of the labeled ligand to the membrane protein of cells expressing the said receptor. Non-specific binding was defined as the amount of radioactivity remaining after incubation of membrane protein in the presence of 10 μM of the unlabeled amine corresponding to the radioligand used. In equilibrium saturation binding assays, membrane preparations or intact cells transfected with the receptor are incubated in the presence of increasing concentrations of the labeled compound to determine the binding affinity of the labeled ligand. The binding affinities of unlabeled compounds may be determined in equilibrium competition binding assays, using a fixed concentration of labeled compound in the presence of varying concentrations of the displacing ligands.

Chain of rSNORF33 (Q923Y9 whole entry): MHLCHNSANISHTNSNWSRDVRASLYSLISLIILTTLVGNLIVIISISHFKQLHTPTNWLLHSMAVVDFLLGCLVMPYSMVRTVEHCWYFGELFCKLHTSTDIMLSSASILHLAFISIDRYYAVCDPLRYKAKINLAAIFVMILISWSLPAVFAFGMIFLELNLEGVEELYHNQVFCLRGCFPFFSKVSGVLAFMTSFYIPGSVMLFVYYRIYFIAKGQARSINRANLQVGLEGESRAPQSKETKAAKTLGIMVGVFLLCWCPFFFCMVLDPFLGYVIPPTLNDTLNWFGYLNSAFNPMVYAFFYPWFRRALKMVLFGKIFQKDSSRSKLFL

SMILES	Cl- currents elicited ([1]; at 100 μM)	EC50 [1]	EC50 [2]	Ki [3]	Cl- currents elicited ([1]; 1-100 μM)
NCC(O)c1ccc(O)cc1 (stereo not drawn) [Octopamine (OCT), Octopamine]	elicited Cl^− currents	635 ± 151 nM	4090 ± 95 nM	417 ± 285 nM	
NCCc1c[nH]c2ccccc12 [Tryptamine (T), Tryptamine]		54 ± 10 nM	24000 nM	1130 ± 372 nM	produced this activity
NCCc1ccc(O)cc1 [Tyramine (TYR), Tyramine]		37 ± 4.4 nM	214 ± 85 nM	51 ± 11 nM	produced this activity
